Assay results as given in patent US20140323521A1, “PHARMACEUTICAL COMPOSITIONS AND ADMINISTRATIONS THEREOF” (Vertex Pharmaceuticals Incorporated, priority 2011, published 2014).

Assays:
Assay in all cases: FRT cell Ussing chamber chloride transport assay
Type in all cases: cell-based
human CFTR mutant S549R = molecular target: T1, human CFTR mutant S549R (Homo sapiens, UniProt P13569, S549R); details: FRT cells expressing S549R CFTR
T1 construct: expressed in transfected cells; host or cells: Fisher rat thyroid (FRT) FlpIn cells, pcDNA5/FRT
T1 sequence (P13569 whole entry S549R): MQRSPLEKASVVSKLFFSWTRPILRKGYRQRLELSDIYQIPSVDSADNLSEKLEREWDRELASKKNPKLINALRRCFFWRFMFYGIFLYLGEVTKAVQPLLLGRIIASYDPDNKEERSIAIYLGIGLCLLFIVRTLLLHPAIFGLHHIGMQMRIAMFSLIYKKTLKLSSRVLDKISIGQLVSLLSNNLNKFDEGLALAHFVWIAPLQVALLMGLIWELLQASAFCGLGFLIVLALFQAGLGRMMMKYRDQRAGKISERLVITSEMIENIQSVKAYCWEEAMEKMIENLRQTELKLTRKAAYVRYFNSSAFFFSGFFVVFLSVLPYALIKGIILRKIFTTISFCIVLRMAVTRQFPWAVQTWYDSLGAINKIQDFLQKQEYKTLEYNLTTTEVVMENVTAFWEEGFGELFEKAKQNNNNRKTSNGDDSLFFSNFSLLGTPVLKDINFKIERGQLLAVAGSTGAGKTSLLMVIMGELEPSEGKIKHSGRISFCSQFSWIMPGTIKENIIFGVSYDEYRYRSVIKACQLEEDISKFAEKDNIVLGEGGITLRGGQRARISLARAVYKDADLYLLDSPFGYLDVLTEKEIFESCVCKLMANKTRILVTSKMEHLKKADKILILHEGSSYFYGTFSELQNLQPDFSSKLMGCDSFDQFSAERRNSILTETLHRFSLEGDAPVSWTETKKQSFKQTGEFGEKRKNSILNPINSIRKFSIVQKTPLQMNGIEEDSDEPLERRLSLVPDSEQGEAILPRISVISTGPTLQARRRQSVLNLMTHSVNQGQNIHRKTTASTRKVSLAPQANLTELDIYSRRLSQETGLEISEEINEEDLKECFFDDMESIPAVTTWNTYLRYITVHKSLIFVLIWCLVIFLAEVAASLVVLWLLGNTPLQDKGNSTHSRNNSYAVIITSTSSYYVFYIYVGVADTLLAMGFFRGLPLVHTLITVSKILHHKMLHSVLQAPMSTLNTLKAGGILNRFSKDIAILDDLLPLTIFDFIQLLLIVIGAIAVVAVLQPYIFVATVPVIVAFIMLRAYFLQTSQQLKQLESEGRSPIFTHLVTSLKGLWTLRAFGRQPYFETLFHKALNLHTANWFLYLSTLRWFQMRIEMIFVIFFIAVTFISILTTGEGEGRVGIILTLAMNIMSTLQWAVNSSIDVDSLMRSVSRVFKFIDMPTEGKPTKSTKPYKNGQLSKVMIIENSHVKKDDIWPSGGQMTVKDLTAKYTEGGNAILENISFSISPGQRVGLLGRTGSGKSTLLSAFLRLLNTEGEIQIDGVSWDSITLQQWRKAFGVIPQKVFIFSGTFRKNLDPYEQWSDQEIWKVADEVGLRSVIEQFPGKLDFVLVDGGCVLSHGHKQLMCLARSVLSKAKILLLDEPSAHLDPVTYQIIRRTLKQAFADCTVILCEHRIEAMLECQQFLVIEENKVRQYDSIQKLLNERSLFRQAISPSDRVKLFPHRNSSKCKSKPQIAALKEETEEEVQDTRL
Text: (§1) DNA cloning: Wild-type CFTR coding region was inserted into pcDNA5/FRT (Invitrogen, San Diego, Calif.) between EcoRV and ApaI.
(§2) Single CFTR gene mutations were introduced into the wild-type CFTR coding sequence by using QuickChange XL site-directed mutagenesis kit (Stratagene, Cambridge, UK). The CFTR coding region as well as its promoter sequence and 3′ untranslated sequence was fully sequenced to confirm the mutagenesis reaction.
(§3) The CFTR gene was stably expressed in Fisher rat thyroid (FRT) cells through FlpIn system. The FRT-FlpIn host cell line was generated by stably transfecting FRT cells with pFRT/lacZeo. The single integration of a FRT site was confirmed by Southern blot. After the mutant CFTR DNA was transfected into the FRT-FlpIn host cell line, the cells were incubate at 37° C. in Coon's modified Ham's F12 containing 10% FBS, 1% Pen/Strep, and 36 ml of Na-Bicarbonate for up to 8 passages under hygromycin selection (200 ug/ml).
(§4) All cells were grown on Costar® Snapwell™ cell culture inserts at maintained at 37° C. prior to recording. The cell culture inserts were mounted into an Ussing chamber (VCC MC8; Physiologic Instruments, Inc., San Diego, Calif.) to record ISC in the voltage-clamp mode (Vhold=0 mV). For FRT cells, the basolateral membrane was permeabilized with 360 μg/ml Nystatin and a basolateral to apical Cl− gradient was established. The basolateral bath solution contained (in mM); 135 NaCl, 1.2 CaCl2, 1.2 MgCl2, 2.4 K2HPO4, 0.6 KHPO4, 10 N-2-hydroxyethylpiperazine-N′-2-ethanesulfonic acid (HEPES), and 10 dextrose (titrated to pH 7.4 with NaOH). The apical NaCl was replaced by equimolar Na+ gluconate (titrated to pH 7.4 with NaOH). For HBE cells, the ISC was measured in the presence of a basolateral to apical Cl− gradient. The normal Cl− solution contained (in mM) 145 NaCl, 3.3 K2HPO4, 1.2 MgCl2, 1.2 CaCl2, 10 Glucose, 10 HEPES (pH adjusted to 7.35 with NaOH) and the low Cl− solution contained (in mM) 145 NaGluconate, 1.2 MgCl2, 1.2 CaCl2, 10 glucose, 10 HEPES (pH adjusted to 7.35 with NaOH). All recordings were digitally acquired using a Acquire and Analyze software (version 2; Physiologic Instruments, Inc. San Diego, Calif.).
(§5) The 10 μM forskolin stimulated response in FRT cell expressing different mutant CFTR forms or in HBE cells isolated from CF patients was normalized to the 10 μM forskolin-stimulated response in FRT cells expressing wild-type CFTR or in HBE isolated from non-CF individuals and expressed as % wild-type CFTR. In HBE, amiloride was added prior to forskolin application to block the epithelial Na+ channel.

human CFTR mutant G178R = molecular target: T2, human CFTR mutant G178R (Homo sapiens, UniProt P13569, G178R); details: FRT cells expressing G178R CFTR
T2 construct: expressed in transfected cells; host or cells: Fisher rat thyroid (FRT) FlpIn cells, pcDNA5/FRT
T2 sequence (P13569 whole entry G178R): as the sequence (P13569 whole entry S549R) above, with G178R, R549S counted along it
Text: as §1, §2, §3, §4, §5

human CFTR mutant S1251N = molecular target: T3, human CFTR mutant S1251N (Homo sapiens, UniProt P13569, S1251N); details: FRT cells expressing S1251N CFTR
T3 construct: expressed in transfected cells; host or cells: Fisher rat thyroid (FRT) FlpIn cells, pcDNA5/FRT
T3 sequence (P13569 whole entry S1251N): as the sequence (P13569 whole entry S549R) above, with R549S, S1251N counted along it
Text: as §1, §2, §3, §4, §5

human CFTR mutant S1255P = molecular target: T4, human CFTR mutant S1255P (Homo sapiens, UniProt P13569, S1255P); details: FRT cells expressing S1255P CFTR
T4 construct: expressed in transfected cells; host or cells: Fisher rat thyroid (FRT) FlpIn cells, pcDNA5/FRT
T4 sequence (P13569 whole entry S1255P): as the sequence (P13569 whole entry S549R) above, with R549S, S1255P counted along it
Text: as §1, §2, §3, §4, §5

human CFTR mutant G1349D = molecular target: T5, human CFTR mutant G1349D (Homo sapiens, UniProt P13569, G1349D); details: FRT cells expressing G1349D CFTR
T5 construct: expressed in transfected cells; host or cells: Fisher rat thyroid (FRT) FlpIn cells, pcDNA5/FRT
T5 sequence (P13569 whole entry G1349D): as the sequence (P13569 whole entry S549R) above, with R549S, G1349D counted along it
Text: as §1, §2, §3, §4, §5

human CFTR mutant G1244E = molecular target: T6, human CFTR mutant G1244E (Homo sapiens, UniProt P13569, G1244E); details: FRT cells expressing G1244E CFTR
T6 construct: expressed in transfected cells; host or cells: Fisher rat thyroid (FRT) FlpIn cells, pcDNA5/FRT
T6 sequence (P13569 whole entry G1244E): as the sequence (P13569 whole entry S549R) above, with R549S, G1244E counted along it
Text: as §1, §2, §3, §4, §5

human CFTR mutant G970R = molecular target: T7, human CFTR mutant G970R (Homo sapiens, UniProt P13569, G970R); details: FRT cells expressing G970R CFTR
T7 construct: expressed in transfected cells; host or cells: Fisher rat thyroid (FRT) FlpIn cells, pcDNA5/FRT
T7 sequence (P13569 whole entry G970R): as the sequence (P13569 whole entry S549R) above, with R549S, G970R counted along it
Text: as §1, §2, §3, §4, §5

human CFTR mutant G551S = molecular target: T8, human CFTR mutant G551S (Homo sapiens, UniProt P13569, G551S); details: FRT cells expressing G551S CFTR
T8 construct: expressed in transfected cells; host or cells: Fisher rat thyroid (FRT) FlpIn cells, pcDNA5/FRT
T8 sequence (P13569 whole entry G551S): as the sequence (P13569 whole entry S549R) above, with R549S, G551S counted along it
Text: as §1, §2, §3, §4, §5

human CFTR mutant S549N = molecular target: T9, human CFTR mutant S549N (Homo sapiens, UniProt P13569, S549N); details: FRT cells expressing S549N CFTR
T9 construct: expressed in transfected cells; host or cells: Fisher rat thyroid (FRT) FlpIn cells, pcDNA5/FRT
T9 sequence (P13569 whole entry S549N): as the sequence (P13569 whole entry S549R) above, with R549N counted along it
Text: as §1, §2, §3, §4, §5

- increase in chloride transport, relative to baseline chloride transport (human CFTR mutant S549R): greater than 10 fold
- increase in chloride transport, relative to baseline chloride transport (human CFTR mutant G178R): greater than 10 fold
- increase in chloride transport, relative to baseline chloride transport (human CFTR mutant S1251N): greater than 10 fold
- increase in chloride transport, relative to baseline chloride transport (human CFTR mutant S1255P): greater than 10 fold
- increase in chloride transport, relative to baseline chloride transport (human CFTR mutant G1349D): greater than 10 fold
- increase in chloride transport, relative to baseline chloride transport (human CFTR mutant G1244E): greater than 10 fold
- increase in chloride transport, relative to baseline chloride transport (human CFTR mutant G970R): greater than 10 fold
- increase in chloride transport, relative to baseline chloride transport (human CFTR mutant G551S): greater than 10 fold
- increase in chloride transport, relative to baseline chloride transport (human CFTR mutant S549N): greater than 10 fold
SMILES: CC(C)(C)c1cc(C(C)(C)C)c(NC(=O)c2c[nH]c3ccccc3c2=O)cc1O [Compound 1, N-[2,4-bis(1,1-dimethylethyl)-5-hydroxyphenyl]-1,4-dihydro-4-oxoquinoline-3-carboxamide]
